Tests used:
[1] = test system: P388 lymphoplastic leukemia; assay: Combined therapy different cytostatics+GMDP-A in the P388 lymphoplastic leukemia model; format: in vivo, BDF1 mice; details: single cytostatic alone (DDP 1/2, gemzar 1/2, CP 1/4 therapeutic dose), start 24 hours after inoculation
Method: Anti-tumor efficiency of the claimed combined therapy and comparative monotherapy using only a cytostatic or only GMDP-A modifier was assessed by the criteria commonly used in experimental oncology: tumor volume (TV), tumor growth inhibition (TGI), increase of the animal life time (ILT), tumor metastasis frequency (MF), metastasis inhibition rate (MI).
Comparative study was carried out of the GMDP-A modifying effect relatively different cytostatic agents: cisplatin (DDP), gemzar and cyclophosphan (CP), in the P388 lymphoplastic leukemia model. Efficiency of combined therapy with cytostatics and GMDP-A was assessed while using DDP in amount of ½ therapeutic dose, gemzar as ½ therapeutic dose and CP in amount of ¼ therapeutic dose. Treatment was started on the early term of tumor growth (in 24 hours after inoculation); GMDP-A was injected during 21 days in a daily dose of 3.75 mg/kg. The drug was administered subcutaneously in 2 areas: in the tumor growth area (over the tumor) or in symmetry area (on the opposite side of the tumor node).
The following commercially-available drugs were used: Cyclophosphan Endoxan® trade mark, manufactured by Baxter Oncology GmbH, Germany; Cisplatin, Cisplatin Teva trade mark, manufacturer is Teva Pharmaceutical Industries Ltd., Israel (fabricated at Pharmachemie B. V., the Netherlands); Gemcitabine, Gemcitar trade mark, manufactured by CJSC Biocad, Russia.
1 mg/ml GMDP-A solution for subcutaneous injection was prepared by dissolving GMDP-A lyophilisate in water for injections.

[2] = test system: P388 lymphoplastic leukemia; assay: Combined therapy DDP+GMDP-A in the P388 lymphoplastic leukemia model; format: in vivo, mice BDF1; details: single DDP 4 mg/kg i.v. alone
Method: (§1) They were transplanted on the right-side surface of the animal body.
(§2) The animals with tumors were treated in test groups at the early (24 hours after tumor inoculation) and late (5 days after tumor inoculation) terms of the tumor growth using a single cytostatic injection intravenously in a dose equal to ½ or ¼ of therapeutic one and various schedules for GMDP-A injection: • Primary subcutaneous injection of GMDP-A modifier in a single dose 3.75 mg/kg; • Repeated protracted subcutaneous administration of GMDP-A modifier according to different schedules: 4-fold, 9-fold and 20-fold, once per day, in a single dose of 3.75 mg/kg (course dose is 18.75 mg/kg, 37.5 mg/kg and 78.75 mg/kg, correspondingly). Dosage frequency depends upon the model (histological form of transplanted tumor).
(§3) To identify efficiency of the claimed combined therapy, independent medication was carried out as a control after tumor inoculation using one component of binary therapy-cytostatic drug or a modifier. Cytostatic was injected intravenously in amount of ½ or ¼ of therapeutic dose once after 24 hours or 5 days after tumor inoculation; GMDP-A modifier was administered subcutaneously in a single dose of 3.75 mg/kg 5-fold from the 1st day to the 5th day or from the 5th day to the 9th day, or 10-fold from the 1st day to the 10th day or from the 5th day to the 14th day, or 21-fold from the 1st day to the 21st day after tumor inoculation.
Efficiency of the combined therapy—chemotherapy with cisplatin cytostatic (DDP) and bioherapy with GMDP-A was assessed on P388 lymphoplastic leukemia model inoculated to mice BDF1, females, subcutaneously on the right-side body surface.
GMDP-A was administered to mice subcutaneously as a single dose of 3.75 mg/kg every day with different schedules: • Five-fold (total dose is 18.75 mg/kg) on the 1st day to the 5th day or on the 5th day to the 9th day after tumor inoculation; • Ten-fold (total dose is 37.5 mg/kg) on the 1st day to the 10th day or on the 5th day to the 14th day after tumor inoculation; • Twenty-one-fold (total dose is 78.75 mg/kg) on the 1st day to the 21st st day after tumor inoculation.
DDP (Cisplatin, Cisplatin Teva trade mark, manufacturer is Teva Pharmaceutical Industries Ltd., Israel, fabricated at Pharmachemie B.V., the Netherlands) was administered intravenously as a single dose ma 4 mg/kg (½ of therapeutic dose).

B16 melanoma = assay: Binary therapy DDP+GMDP-A in the B16 melanoma model; format: in vivo, BDF1 mice; details: single DDP 4 mg/kg i.v. alone
Method: as §1, §2, §3
Efficiency of the combined therapy—chemotherapy with DDP cytostatic and biotherapy with GMDP-A was assessed on B16 melanoma model inoculated to BDF1 mice, females, subcutaneously on the right-side body surface.
GMDP-A was administered to mice subcutaneously as a single dose of 3.75 mg/kg every day with different schedules:
Five-fold (total dose is 18.75 mg/kg) on the 1st day to the 5th day or on the 5th day to the 9th day after tumor inoculation;
Ten-fold (total dose is 37.5 mg/kg) on the 1st day to the 10th day or on the 5th day to the 14th day after tumor inoculation;
DDP (Cisplatin, Cisplatin Teva trade mark, manufacturer is Teva Pharmaceutical Industries Ltd., Israel, fabricated at Pharmachemie B.V., the Netherlands) was administered intravenously as a single dose of 4 mg/kg (½ of therapeutic dose).

[3] = test system: P388 lymphoplastic leukemia; assay: GMDP-A lyophilisate versus final pharmaceutical form, alone and with DDP, in the P388 lymphoplastic leukemia model; format: in vivo, BDF1 mice; details: if given, 21-fold, single
Method: Therapeutic efficiency of GMDP-A lyophilisate and the GMDP-A final pharmaceutical form was compared in the model of P338 lymphoplastic leukemia solid version at the early treatment start (in 24 hour after subcutaneous transplantation of tumor material) as GMDP-A monotherapy (lyophilisate or the final pharmaceutical form) as well as combined administration with DDP.
As a final pharmaceutical form, “GMDP-A, 1 mg/ml solution for subcutaneous injection” sterile solutions were used. They contained GMDP-A and the following auxiliary substances and carriers in pharmaceutically-accepted amounts: sorbitol, disodium edeteate, propylene glycol, water.

[4] = during intravenous injection; cited from earlier work

O=P1(N(CCCl)CCCl)NCCCO1 (stereo not drawn) [CP, cyclophosphan]
tumor growth inhibition (TGI) ([1]; day 7): 89% | tumor growth inhibition (TGI) ([1]; day 12): 86% | tumor growth inhibition (TGI) ([1]; day 14): 85% | tumor growth inhibition (TGI) ([1]; day 19): 76% | tumor growth inhibition (TGI) ([1]; day 21): 77% | Average life time [1]: 31 ± 2 days | ILT (increase of the animal life time) [1]: 30% | Metastasis MF (tumor metastasis frequency) [1]: 100% | Metastasis MI (metastasis inhibition rate) [1]: 89%

N.N.[Cl][Pt][Cl] [DDP, cisplatin, reference compound]
Tumor volume ([2]; day 7, early start (1st day)): 37.9 ± 4.5 mm^3 | tumor growth inhibition (TGI) ([2]; day 7, early start (1st day)): 64% | Tumor volume ([2]; day 7, late start (5th day)): 75.4 ± 4.8 mm^3 | tumor growth inhibition (TGI) ([2]; day 7, late start (5th day)): 28% | Tumor volume ([2]; day 9, early start (1st day)): 67.5 ± 7.7 mm^3 | tumor growth inhibition (TGI) ([2]; day 9, early start (1st day)): 53% | Tumor volume ([2]; day 9, late start (5th day)): 65.7 ± 6.2 mm^3 | tumor growth inhibition (TGI) ([2]; day 9, late start (5th day)): 54% | Tumor volume ([2]; day 12, early start (1st day)): 76.7 ± 7.7 mm^3 | tumor growth inhibition (TGI) ([2]; day 12, early start (1st day)): 61% | Tumor volume ([2]; day 12, late start (5th day)): 95.9 ± 8.4 mm^3 | tumor growth inhibition (TGI) ([2]; day 12, late start (5th day)): 51% | Tumor volume ([2]; day 14, early start (1st day)): 155.3 ± 12 mm^3 | tumor growth inhibition (TGI) ([2]; day 14, early start (1st day)): 42% | Tumor volume ([2]; day 14, late start (5th day)): 149.3 ± 11.6 mm^3 | tumor growth inhibition (TGI) ([2]; day 14, late start (5th day)): 44% | Tumor volume ([2]; day 19, early start (1st day)): 374.1 ± 28.4 mm^3 | tumor growth inhibition (TGI) ([2]; day 19, early start (1st day)): 41% | Tumor volume ([2]; day 19, late start (5th day)): 448.9 ± 33.2 mm^3 | tumor growth inhibition (TGI) ([2]; day 19, late start (5th day)): 30% | Average life time ([2]; early start (1st day)): 23 ± 0.7 days | ILT (increase of the animal life time) ([2]; early start (1st day)): −4% | Metastasis MF (tumor metastasis frequency) ([2]; early start (1st day)): 100% | Metastasis MI (metastasis inhibition rate) ([2]; early start (1st day)): 49% | Average life time ([2]; late start (5th day)): 24 ± 0.6 days | ILT (increase of the animal life time) ([2]; late start (5th day)): 0% | Metastasis MF (tumor metastasis frequency) ([2]; late start (5th day)): 100% | Metastasis MI (metastasis inhibition rate) ([2]; late start (5th day)): 50% | Tumor volume (B16 melanoma; day 7, early start (1st day)): 3 ± 3 mm^3 | tumor growth inhibition (TGI) (B16 melanoma; day 7, early start (1st day)): 94% | Tumor volume (B16 melanoma; day 9, early start (1st day)): 13 ± 5 mm^3 | tumor growth inhibition (TGI) (B16 melanoma; day 9, early start (1st day)): 89% | Tumor volume (B16 melanoma; day 9, late start (5th day)): 51 ± 8 mm^3 | tumor growth inhibition (TGI) (B16 melanoma; day 9, late start (5th day)): 56% | Tumor volume (B16 melanoma; day 12, early start (1st day)): 54 ± 18 mm^3 | tumor growth inhibition (TGI) (B16 melanoma; day 12, early start (1st day)): 80% | Tumor volume (B16 melanoma; day 12, late start (5th day)): 163 ± 22 mm^3 | tumor growth inhibition (TGI) (B16 melanoma; day 12, late start (5th day)): 38% | Tumor volume (B16 melanoma; day 14, early start (1st day)): 117 ± 20 mm^3 | tumor growth inhibition (TGI) (B16 melanoma; day 14, early start (1st day)): 69% | Tumor volume (B16 melanoma; day 14, late start (5th day)): 270 ± 45 mm^3 | tumor growth inhibition (TGI) (B16 melanoma; day 14, late start (5th day)): 23% | Tumor volume (B16 melanoma; day 16, early start (1st day)): 232 ± 36 mm^3 | tumor growth inhibition (TGI) (B16 melanoma; day 16, early start (1st day)): 58% | Tumor volume (B16 melanoma; day 16, late start (5th day)): 424 ± 43 mm^3 | tumor growth inhibition (TGI) (B16 melanoma; day 16, late start (5th day)): 24% | Tumor volume (B16 melanoma; day 19, early start (1st day)): 653 ± 176 mm^3 | tumor growth inhibition (TGI) (B16 melanoma; day 19, early start (1st day)): 39% | Tumor volume (B16 melanoma; day 19, late start (5th day)): 1010 ± 173 mm^3 | tumor growth inhibition (TGI) (B16 melanoma; day 19, late start (5th day)): 5% | Average life time (B16 melanoma; early start (1st day)): 28 ± 3 days | ILT (increase of the animal life time) (B16 melanoma; early start (1st day)): 33% | Metastasis MF (tumor metastasis frequency) (B16 melanoma; early start (1st day)): 20% | Metastasis MI (metastasis inhibition rate) (B16 melanoma; early start (1st day)): 99% | Average life time (B16 melanoma; late start (5th day)): 25 ± 3 days | ILT (increase of the animal life time) (B16 melanoma; late start (5th day)): 19% | Metastasis MF (tumor metastasis frequency) (B16 melanoma; late start (5th day)): 100% | Metastasis MI (metastasis inhibition rate) (B16 melanoma; late start (5th day)): 11% | tumor growth inhibition (TGI) ([1]; day 7): 27% | tumor growth inhibition (TGI) ([1]; day 12): 36% | tumor growth inhibition (TGI) ([1]; day 14): 43% | tumor growth inhibition (TGI) ([1]; day 19): 33% | tumor growth inhibition (TGI) ([1]; day 21): 22% | Average life time [1]: 26 ± 1 days | ILT (increase of the animal life time) [1]: 9% | Metastasis MF (tumor metastasis frequency) [1]: 100% | Metastasis MI (metastasis inhibition rate) [1]: 40% | Tumor volume ([3]; day 8, early start (24 hour)): 29.4 ± 5.3 mm^3 | tumor growth inhibition (TGI) ([3]; day 8, early start (24 hour)): 65% | Tumor volume ([3]; day 12, early start (24 hour)): 53.6 ± 5.4 mm^3 | tumor growth inhibition (TGI) ([3]; day 12, early start (24 hour)): 67% | Tumor volume ([3]; day 16, early start (24 hour)): 96.3 ± 5.1 mm^3 | tumor growth inhibition (TGI) ([3]; day 16, early start (24 hour)): 73% | Tumor volume ([3]; day 20, early start (24 hour)): 440 ± 26.7 mm^3 | tumor growth inhibition (TGI) ([3]; day 20, early start (24 hour)): 58% | Average life time ([3]; early start (24 hour)): 30.0 ± 2.8 days | ILT (increase of the animal life time) ([3]; early start (24 hour)): 22% | Metastasis (upper, unnamed value in the Metastasis inhibition index column) ([3]; early start (24 hour)): 172.0 ± 14.4 | Metastasis MF (tumor metastasis frequency) ([3]; early start (24 hour)): 100% | Metastasis inhibition index ([3]; early start (24 hour)): 32%

CC(=O)N[C@H]1[C@H](O[C@H]2[C@H](O[C@H](C)C(=O)N[C@@H](C)C(=O)N[C@H](CCC(=O)O)C(N)=O)[C@@H](NC(C)=O)C(O)O[C@@H]2CO)O[C@H](CO)[C@@H](O)[C@@H]1O (stereo partly drawn) [GMDP, N-acetyl-D-glucosaminyl-β-(1-4)-N-acetylmuramoyl-L-alanyl-D-isoglutamine]
Pyrogenicity [4]: pyrogenic effect

Nc1ccn([C@@H]2O[C@H](CO)[C@@H](O)C2(F)F)c(=O)n1 [Gemzar, Gemcitabine]
tumor growth inhibition (TGI) ([1]; day 7): 60% | tumor growth inhibition (TGI) ([1]; day 12): 37% | tumor growth inhibition (TGI) ([1]; day 14): 34% | tumor growth inhibition (TGI) ([1]; day 19): 45% | tumor growth inhibition (TGI) ([1]; day 21): 44% | Average life time [1]: 29 ± 2 days | ILT (increase of the animal life time) [1]: 21% | Metastasis MF (tumor metastasis frequency) [1]: 100% | Metastasis MI (metastasis inhibition rate) [1]: 69%

Source: patent publication US20170290882A1, “Specific Combined Therapy of Malignant Tumors with a Cytostatic and Its Modifier” (priority 2015, published 2017)
